Reference: BindingDB's records for doi:10.1016/j.bmcl.2005.10.040 (Huazhong University of Science and Technology, 2005)

Legend:
[1] = biological target: T1, Succinate-semialdehyde dehydrogenase, mitochondrial (Homo sapiens, UniProt P51649); assay: Inhibitory activity against SSADH
T1 sequence (P51649 whole entry): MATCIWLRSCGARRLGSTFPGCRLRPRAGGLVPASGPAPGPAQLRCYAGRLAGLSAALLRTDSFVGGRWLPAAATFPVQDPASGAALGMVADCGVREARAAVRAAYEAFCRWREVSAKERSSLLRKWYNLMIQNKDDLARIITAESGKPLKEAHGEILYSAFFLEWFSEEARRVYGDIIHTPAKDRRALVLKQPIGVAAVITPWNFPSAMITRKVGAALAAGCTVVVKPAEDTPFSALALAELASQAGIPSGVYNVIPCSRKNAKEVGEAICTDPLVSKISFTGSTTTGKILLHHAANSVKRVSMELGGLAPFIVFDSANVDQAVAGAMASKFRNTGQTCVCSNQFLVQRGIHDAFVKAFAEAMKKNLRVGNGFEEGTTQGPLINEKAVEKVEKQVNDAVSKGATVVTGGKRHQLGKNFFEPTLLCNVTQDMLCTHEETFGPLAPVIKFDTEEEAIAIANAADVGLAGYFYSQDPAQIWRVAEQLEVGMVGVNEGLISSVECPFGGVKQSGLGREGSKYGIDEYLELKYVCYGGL

[2] = biological target: 4-aminobutyrate aminotransferase, mitochondrial (Homo sapiens, UniProt P80404); assay: Inhibitory activity against GABAT
Sequence of 4-aminobutyrate aminotransferase, mitochondrial (P80404 whole entry): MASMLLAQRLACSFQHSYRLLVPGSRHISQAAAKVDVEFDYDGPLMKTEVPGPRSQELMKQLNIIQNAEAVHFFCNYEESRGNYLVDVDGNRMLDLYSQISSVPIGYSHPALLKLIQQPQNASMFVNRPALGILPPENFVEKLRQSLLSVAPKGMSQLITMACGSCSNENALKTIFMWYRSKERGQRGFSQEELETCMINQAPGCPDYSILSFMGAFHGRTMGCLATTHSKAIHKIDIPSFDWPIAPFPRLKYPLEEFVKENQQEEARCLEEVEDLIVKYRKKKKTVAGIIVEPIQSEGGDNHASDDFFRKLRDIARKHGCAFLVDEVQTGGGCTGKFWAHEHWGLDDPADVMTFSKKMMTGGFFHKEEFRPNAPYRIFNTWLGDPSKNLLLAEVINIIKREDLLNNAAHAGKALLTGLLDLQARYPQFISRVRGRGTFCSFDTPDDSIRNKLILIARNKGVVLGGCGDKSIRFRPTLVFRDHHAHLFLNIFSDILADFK

Row | IC50 [1] [µM] | IC50 [2] [µM] | Compound
1 | > 1000 | > 1000 | COc1cc(CN=O)ccc1O [4-hydroxy-3-methoxybenzaldehyde oxime]
2 | > 1000 | > 1000 | O=NCc1ccc(O)cc1 [4-hydroxybenzaldehyde oxime]
